Laboratory results from the supplement of paper PMC10883282.
± gives the standard deviation of the averaged measurements.

Columns and labels:
Assay in all cases: relative viability vs DMSO control (72 h) (fraction); higher = more viable cells
[1] = tested on: SW684
Method in brief: (§1)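 Relative viability is percent growth read by ATPLite and averaged over up to triplicate wells. Sarcoma cells were seeded in 384-well plates to reach 80–90% confluence and given 2.5 µl of serially diluted compound after 24 h, from source plates of 10 mM to 0.0002 mM. Incubation lasted 72 h at 37 °C, 5% CO2, with 0.1% DMSO vehicle and a 5 µM positive control, and the data were rescaled so 1 equals full and 0 equals none.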

[2] = tested on: A204
Method in brief: as §1

[3] = tested on: SK-ES-1
Method in brief: as §1

[4] = tested on: G401
Method in brief: as §1

[5] = tested on: SK-LMS-1
Method in brief: as §1

[6] = tested on: HS729
Method in brief: as §1

[7] = tested on: SW872
Method in brief: as §1

[8] = tested on: MES-SA
Method in brief: as §1

[9] = tested on: SYO-1
Method in brief: as §1

[10] = tested on: SW1353
Method in brief: as §1

[11] = tested on: SW982
Method in brief: as §1

[12] = tested on: KHOS-240S
Method in brief: as §1

CN(C)C/C=C/C(=O)Nc1cc2c(Nc3ccc(F)c(Cl)c3)ncnc2cc1O[C@H]1CCOC1 [Afatinib]
Settings	relative viability
[1], 0.00017 µM	1.18 ± 0.045
[1], 0.00051 µM	1.18 ± 0.038
[1], 0.00152 µM	1.23 ± 0.062
[1], 0.00457 µM	1.18 ± 0.022
[1], 0.01372 µM	1.14 ± 0.029
[1], 0.04115 µM	1.13 ± 0.029
[1], 0.1235 µM	1.1 ± 0.037
[1], 0.3704 µM	1.04 ± 0.051
[1], 1.111 µM	0.816 ± 0.011
[1], 3.333 µM	0.527 ± 0.019
[1], 10 µM	0.203 ± 0.15
[2], 0.00017 µM	0.993 ± 0.055
[2], 0.00051 µM	1 ± 0.053
[2], 0.00152 µM	1.03 ± 0.042
[2], 0.00457 µM	0.976 ± 0.085
[2], 0.01372 µM	1.01 ± 0.081
[2], 0.04115 µM	0.945 ± 0.051
[2], 0.1235 µM	0.859 ± 0.046
[2], 0.3704 µM	0.595 ± 0.067
[2], 1.111 µM	0.34 ± 0.017
[2], 3.333 µM	0.175 ± 0.021
[2], 10 µM	0.00583 ± 0.0022
[3], 0.00017 µM	1.01 ± 0.04
[3], 0.00051 µM	1.05 ± 0.042
[3], 0.00152 µM	1.04 ± 0.024
[3], 0.00457 µM	0.988 ± 0.027
[3], 0.01372 µM	1.03 ± 0.007
[3], 0.04115 µM	0.959 ± 0.053
[3], 0.1235 µM	0.858 ± 0.034
[3], 0.3704 µM	0.676 ± 0.022
[3], 1.111 µM	0.306 ± 0.013
[3], 3.333 µM	0.117 ± 0.019
[3], 10 µM	0.113 ± 0.023
[4], 0.00017 µM	1.02 ± 0.019
[4], 0.00051 µM	1.03 ± 0.054
[4], 0.00152 µM	1.015 ± 0.0047
[4], 0.00457 µM	1.03 ± 0.021
[4], 0.01372 µM	1.03 ± 0.036
[4], 0.04115 µM	0.9814 ± 0.0069
[4], 0.1235 µM	0.97 ± 0.039
[4], 0.3704 µM	0.846 ± 0.037
[4], 1.111 µM	0.61 ± 0.0089
[4], 3.333 µM	0.472 ± 0.06
[4], 10 µM	0.212 ± 0.19
[5], 0.00017 µM	1.1 ± 0.056
[5], 0.00051 µM	1.1 ± 0.016
[5], 0.00152 µM	1.11 ± 0.027
[5], 0.00457 µM	1.08 ± 0.029
[5], 0.01372 µM	1.13 ± 0.048
[5], 0.04115 µM	1.04 ± 0.05
[5], 0.1235 µM	1.01 ± 0.034
[5], 0.3704 µM	0.879 ± 0.011
[5], 1.111 µM	0.724 ± 0.021
[5], 3.333 µM	0.462 ± 0.09
[5], 10 µM	0.135 ± 0.2
[6], 0.00017 µM	1.07 ± 0.046
[6], 0.00051 µM	0.975 ± 0.051
[6], 0.00152 µM	0.989 ± 0.04
[6], 0.00457 µM	0.953 ± 0.057
[6], 0.01372 µM	0.958 ± 0.033
[6], 0.04115 µM	0.968 ± 0.035
[6], 0.1235 µM	0.937 ± 0.019
[6], 0.3704 µM	0.802 ± 0.033
[6], 1.111 µM	0.667 ± 0.026
[6], 3.333 µM	0.529 ± 0.035
[6], 10 µM	0.007367 ± 5.8e-05
[7], 0.00017 µM	1.07 ± 0.036
[7], 0.00051 µM	1.14 ± 0.039
[7], 0.00152 µM	1.09 ± 0.012
[7], 0.00457 µM	1.11 ± 0.065
[7], 0.01372 µM	1.07 ± 0.04
[7], 0.04115 µM	1.06 ± 0.057
[7], 0.1235 µM	1.02 ± 0.07
[7], 0.3704 µM	0.896 ± 0.057
[7], 1.111 µM	0.595 ± 0.011
[7], 3.333 µM	0.304 ± 0.0056
[7], 10 µM	0.257 ± 0.079
[8], 0.00017 µM	0.967 ± 0.036
[8], 0.00051 µM	0.955 ± 0.039
[8], 0.00152 µM	0.948 ± 0.037
[8], 0.00457 µM	0.947 ± 0.035
[8], 0.01372 µM	0.934 ± 0.041
[8], 0.04115 µM	0.887 ± 0.027
[8], 0.1235 µM	0.885 ± 0.038
[8], 0.3704 µM	0.725 ± 0.024
[8], 1.111 µM	0.452 ± 0.018
[8], 3.333 µM	0.283 ± 0.04
[8], 10 µM	0.24 ± 0.099
[9], 0.00017 µM	1.03 ± 0.049
[9], 0.00051 µM	1.01 ± 0.016
[9], 0.00152 µM	0.979 ± 0.03
[9], 0.00457 µM	0.949 ± 0.036
[9], 0.01372 µM	0.957 ± 0.063
[9], 0.04115 µM	0.946 ± 0.022
[9], 0.1235 µM	0.903 ± 0.042
[9], 0.3704 µM	0.838 ± 0.022
[9], 1.111 µM	0.5276 ± 0.003
[9], 3.333 µM	0.00877 ± 0.0057
[9], 10 µM	-0.00643 ± 0.0018
[10], 0.00017 µM	1.03 ± 0.038
[10], 0.00051 µM	1.01 ± 0.048
[10], 0.00152 µM	0.965 ± 0.012
[10], 0.00457 µM	0.923 ± 0.035
[10], 0.01372 µM	0.822 ± 0.039
[10], 0.04115 µM	0.771 ± 0.011
[10], 0.1235 µM	0.749 ± 0.03
[10], 0.3704 µM	0.653 ± 0.018
[10], 1.111 µM	0.485 ± 0.037
[10], 3.333 µM	0.3677 ± 0.0033
[10], 10 µM	0.22 ± 0.17
[11], 0.00017 µM	1.017 ± 0.0088
[11], 0.00051 µM	1.03 ± 0.02
[11], 0.00152 µM	1.03 ± 0.022
[11], 0.00457 µM	1.06 ± 0.023
[11], 0.01372 µM	1.05 ± 0.034
[11], 0.04115 µM	1.02 ± 0.041
[11], 0.1235 µM	0.914 ± 0.051
[11], 0.3704 µM	0.659 ± 0.0084
[11], 1.111 µM	0.286 ± 0.0054
[11], 3.333 µM	0.183 ± 0.0057
[11], 10 µM	0.219 ± 0.0079
[12], 0.00017 µM	1.06 ± 0.052
[12], 0.00051 µM	1.06 ± 0.056
[12], 0.00152 µM	1.07 ± 0.068
[12], 0.00457 µM	1.08 ± 0.063
[12], 0.01372 µM	1.06 ± 0.036
[12], 0.04115 µM	1.04 ± 0.063
[12], 0.1235 µM	1.03 ± 0.064
[12], 0.3704 µM	0.991 ± 0.051
[12], 1.111 µM	0.715 ± 0.072
[12], 3.333 µM	0.402 ± 0.039
[12], 10 µM	0.0697 ± 0.068
